Data on one compound can be found in BindingDB's records for doi:10.1016/j.bmcl.2014.06.001 (Tohoku Pharmaceutical University, 2014).

The experiment in a line: Inhibition of Wistar rat intestinal maltase assessed as inhibition of D-glucose release after 30 mins by spectrophotometry.

For orientation: IC50 means the concentration that gives 50% inhibition. For the compound `OC[C@@H]1N[C@@H](CCCCc2ccc(O)cc2)[C@H](O)[C@H]1O`, the IC50 amounted to 0.17 µM.
